According to the CheMixHub ionic liquid set:
± gives the uncertainty stated by the source.

Assay: xn = mol fraction of the nth substance listed

CCCCCO + CCCC[n+]1ccn(C)c1.O=S(=O)([N-]S(=O)(=O)C(F)(F)F)C(F)(F)F
298 K, 100 kPa
Conditions	electrical conductivity [S/m]	viscosity [mPa·s]
x2 = 0	–	3.486 ± 0.038
x2 = 0.5988	–	20.14 ± 0.4
x2 = 0.6	0.5605 ± 0.0056	–
x2 = 0.6994	–	25.03 ± 0.53
x2 = 0.7	0.526 ± 0.0053	–
x2 = 0.8	0.487 ± 0.0049	–
x2 = 0.8014	–	31.59 ± 0.72
x2 = 0.9	0.4445 ± 0.0044	–
x2 = 0.9023	–	39 ± 0.95

OCCO + CCCC[n+]1ccn(C)c1.O=S(=O)([N-]S(=O)(=O)C(F)(F)F)C(F)(F)F
100 kPa
Conditions	viscosity [mPa·s]
293.15 K, x2 = 0.2002	34.4 ± 3.5
293.15 K, x2 = 0.4015	41.6 ± 4.3
298.15 K, x2 = 0.2002	27.2 ± 2.8
308.15 K, x2 = 0.2997	18.6 ± 1.9
308.15 K, x2 = 0.7003	21.8 ± 2.2
313.15 K, x2 = 0.2997	15.6 ± 1.6
318.15 K, x2 = 0.2997	13.3 ± 1.4
318.15 K, x2 = 0.7003	15.6 ± 1.6
323.15 K, x2 = 0.2997	11.5 ± 1.2
323.15 K, x2 = 0.7993	14.8 ± 1.5
323.15 K, x2 = 0.9	17 ± 1.7
328.15 K, x2 = 0.4015	10.4 ± 1.1
328.15 K, x2 = 0.6007	11.3 ± 1.2
328.15 K, x2 = 0.9	14.7 ± 1.5
333.15 K, x2 = 0.2002	8.11 ± 0.83
333.15 K, x2 = 0.7993	11.3 ± 1.2
338.15 K, x2 = 0.7993	10 ± 1

OCCO + CCCC[n+]1ccn(C)c1.O=S(=O)([O-])C(F)(F)F
Conditions	viscosity [mPa·s]
303.15 K, 100 kPa, x2 = 0	13.49 ± 0.55

O=C(O)c1cccnc1 + CCCC[n+]1ccn(C)c1.[Br-] + O
viscosity [mPa·s], 100 kPa
Conditions	293.15 K	298.15 K	303.15 K	308.15 K	313.15 K	318.15 K
x1 = 0.0002684, x2 = 0	1.015 ± 0.031	0.903 ± 0.031	0.807 ± 0.031	0.734 ± 0.031	0.666 ± 0.031	0.61 ± 0.031
x1 = 0.0002711, x2 = 0.0008999	1.035 ± 0.032	0.92 ± 0.031	0.824 ± 0.031	0.754 ± 0.031	0.677 ± 0.031	0.62 ± 0.031
x1 = 0.0002757, x2 = 0.001798	1.06 ± 0.032	0.94 ± 0.031	0.842 ± 0.031	0.759 ± 0.031	0.69 ± 0.031	0.632 ± 0.031
x1 = 0.0002802, x2 = 0.002695	1.071 ± 0.032	1.002 ± 0.031	0.906 ± 0.031	0.796 ± 0.031	0.75 ± 0.031	0.681 ± 0.031
x1 = 0.0005421, x2 = 0	1.018 ± 0.031	0.905 ± 0.031	0.809 ± 0.031	0.737 ± 0.031	0.669 ± 0.031	0.614 ± 0.031
x1 = 0.0005475, x2 = 0.0008997	1.039 ± 0.032	0.923 ± 0.031	0.827 ± 0.031	0.756 ± 0.031	0.678 ± 0.031	0.621 ± 0.031
x1 = 0.0005493, x2 = 0.001798	1.063 ± 0.032	0.942 ± 0.031	0.843 ± 0.031	0.761 ± 0.031	0.691 ± 0.031	0.633 ± 0.031
x1 = 0.0005547, x2 = 0.002694	1.074 ± 0.032	1.004 ± 0.031	0.908 ± 0.031	0.797 ± 0.031	0.751 ± 0.031	0.682 ± 0.031
x1 = 0.0008084, x2 = 0	1.021 ± 0.031	0.908 ± 0.031	0.812 ± 0.031	0.742 ± 0.031	0.673 ± 0.031	0.617 ± 0.031
x1 = 0.0008166, x2 = 0.0008994	1.042 ± 0.032	0.925 ± 0.031	0.829 ± 0.031	0.758 ± 0.031	0.68 ± 0.031	0.622 ± 0.031
x1 = 0.0008283, x2 = 0.001797	1.066 ± 0.032	0.945 ± 0.031	0.845 ± 0.031	0.763 ± 0.031	0.693 ± 0.031	0.634 ± 0.031
x1 = 0.0008364, x2 = 0.002693	1.077 ± 0.032	1.007 ± 0.031	0.91 ± 0.031	0.799 ± 0.031	0.753 ± 0.031	0.683 ± 0.031
x1 = 0.001084, x2 = 0	1.024 ± 0.031	0.911 ± 0.031	0.814 ± 0.031	0.746 ± 0.031	0.677 ± 0.031	0.62 ± 0.031
x1 = 0.001093, x2 = 0.0008992	1.044 ± 0.032	0.927 ± 0.031	0.83 ± 0.031	0.759 ± 0.031	0.681 ± 0.031	0.624 ± 0.031
x1 = 0.001104, x2 = 0.001797	1.069 ± 0.032	0.947 ± 0.031	0.848 ± 0.031	0.765 ± 0.031	0.694 ± 0.031	0.635 ± 0.031
x1 = 0.001114, x2 = 0.002693	1.08 ± 0.032	1.009 ± 0.031	0.912 ± 0.031	0.801 ± 0.031	0.754 ± 0.031	0.684 ± 0.031
x1 = 0.001351, x2 = 0	1.027 ± 0.032	0.913 ± 0.031	0.816 ± 0.031	0.75 ± 0.031	0.681 ± 0.031	0.624 ± 0.031
x1 = 0.001363, x2 = 0.000899	1.047 ± 0.032	0.93 ± 0.031	0.833 ± 0.031	0.762 ± 0.031	0.683 ± 0.031	0.625 ± 0.031
x1 = 0.001377, x2 = 0.001796	1.071 ± 0.032	0.95 ± 0.031	0.85 ± 0.031	0.767 ± 0.031	0.696 ± 0.031	0.636 ± 0.031
x1 = 0.00139, x2 = 0.002692	1.083 ± 0.032	1.012 ± 0.031	0.915 ± 0.031	0.803 ± 0.031	0.756 ± 0.031	0.686 ± 0.031
x1 = 0.001619, x2 = 0	1.03 ± 0.032	0.916 ± 0.031	0.819 ± 0.031	0.754 ± 0.031	0.685 ± 0.031	0.628 ± 0.031
x1 = 0.001635, x2 = 0.0008987	1.05 ± 0.032	0.932 ± 0.031	0.835 ± 0.031	0.763 ± 0.031	0.684 ± 0.031	0.619 ± 0.031
x1 = 0.001652, x2 = 0.001796	1.074 ± 0.032	0.952 ± 0.031	0.852 ± 0.031	0.768 ± 0.031	0.697 ± 0.031	0.638 ± 0.031
x1 = 0.001666, x2 = 0.002691	1.086 ± 0.032	1.014 ± 0.031	0.917 ± 0.031	0.805 ± 0.031	0.757 ± 0.031	0.687 ± 0.031

CCCC[n+]1ccn(C)c1.CS(=O)(=O)[O-] + CCCC[n+]1ccn(C)c1.[Cl-]
Conditions	viscosity [mPa·s]
353.15 K, 102 kPa, x1 = 0.2	98 ± 10

CCCCn1cc[n+](C)c1C.O=S(=O)([N-]S(=O)(=O)C(F)(F)F)C(F)(F)F + CCCC[n+]1ccn(C)c1C.F[B-](F)(F)F
Conditions	electrical conductivity [S/m]
358.15 K, 100 kPa, x1 = 1	1.71 ± 0.1

CS(=O)(=O)[O-].C[N+](C)(CCO)CCO + CCCO
viscosity [mPa·s], 101 kPa
Conditions	x1 = 0.0999	x1 = 0.1996	x1 = 0.2999	x1 = 0.3987	x1 = 0.498	x1 = 0.5975	x1 = 0.6972	x1 = 0.7982	x1 = 0.8978	x1 = 1
298.15 K	4.97 ± 0.3	11.64 ± 0.71	25.5 ± 1.5	50.9 ± 3.1	97.5 ± 6.3	196 ± 14	337 ± 28	576 ± 56	960 ± 100	1495 ± 180
303.15 K	4.34 ± 0.26	9.88 ± 0.6	20.9 ± 1.3	40.6 ± 2.5	75.5 ± 4.7	149 ± 10	248 ± 19	414 ± 37	676 ± 68	1021 ± 110
308.15 K	3.8 ± 0.23	8.45 ± 0.52	17.4 ± 1.1	32.9 ± 2	59.6 ± 3.6	114.8 ± 7.5	187 ± 14	304 ± 25	484 ± 45	716 ± 73
313.15 K	3.36 ± 0.2	7.29 ± 0.44	14.66 ± 0.89	27 ± 1.6	47.7 ± 2.9	79.8 ± 5	142.8 ± 9.8	228 ± 17	355 ± 30	513 ± 48
318.15 K	2.98 ± 0.18	6.35 ± 0.39	12.49 ± 0.76	22.5 ± 1.4	38.8 ± 2.4	63.7 ± 3.9	111.4 ± 7.3	174 ± 13	267 ± 21	378 ± 33
323.15 K	2.66 ± 0.16	5.56 ± 0.34	10.92 ± 0.66	18.9 ± 1.1	32 ± 1.9	51.5 ± 3.1	79.8 ± 5	135.8 ± 9.2	203 ± 15	282 ± 23
